According to patent US11970498B2, “CDK2 inhibitors” (BLUEPRINT MEDICINES CORPORATION, priority 2021, dated 2024):

Experiments:
CDK1/Cyclin B1, GST-tag = molecular target: T1, CDK1/Cyclin B1, GST-tag (Homo sapiens, UniProt P06493); assay: CDK1/Cyclin B1 biochemical phosphorylation assay (Caliper mobility shift); details: apparent IC50; 1.0 mM ATP or ATP Km; 1.5 nM enzyme; 25° C.
T1 construct: GST
How it was run: (§1)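 Caliper electrophoretic separation of substrate and phosphopeptide gave apparent IC50s. Enzymes: CDK1/Cyclin B1 GST-tag 1.5 nM, CDK2/Cyclin E 1.25 nM; ATP 1.0 mM or at Km; 7.5 µM FL-peptide; pH 7.5 HEPES buffer, 1% DMSO; room temperature until 10–20% phosphorylated, then EDTA quench.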

CDK2/Cyclin E = CDK2/Cyclin E (Homo sapiens, UniProt P24941); assay: CDK2/Cyclin E biochemical phosphorylation assay (Caliper mobility shift); details: apparent IC50; 1.0 mM ATP or ATP Km; 1.25 nM enzyme; 25° C.; read-out: CDK2/cyclin E1 IC50
How it was run: as §1

T1 sequence (P06493 whole entry): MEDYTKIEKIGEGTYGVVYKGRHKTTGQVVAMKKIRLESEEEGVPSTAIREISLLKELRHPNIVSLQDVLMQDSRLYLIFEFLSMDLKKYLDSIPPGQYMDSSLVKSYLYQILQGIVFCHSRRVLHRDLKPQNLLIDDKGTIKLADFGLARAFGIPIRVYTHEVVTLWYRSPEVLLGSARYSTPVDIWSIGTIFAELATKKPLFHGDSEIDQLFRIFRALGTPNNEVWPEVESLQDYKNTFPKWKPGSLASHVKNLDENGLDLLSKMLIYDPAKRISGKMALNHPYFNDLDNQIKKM
T1 sequence (P14635 whole entry partner): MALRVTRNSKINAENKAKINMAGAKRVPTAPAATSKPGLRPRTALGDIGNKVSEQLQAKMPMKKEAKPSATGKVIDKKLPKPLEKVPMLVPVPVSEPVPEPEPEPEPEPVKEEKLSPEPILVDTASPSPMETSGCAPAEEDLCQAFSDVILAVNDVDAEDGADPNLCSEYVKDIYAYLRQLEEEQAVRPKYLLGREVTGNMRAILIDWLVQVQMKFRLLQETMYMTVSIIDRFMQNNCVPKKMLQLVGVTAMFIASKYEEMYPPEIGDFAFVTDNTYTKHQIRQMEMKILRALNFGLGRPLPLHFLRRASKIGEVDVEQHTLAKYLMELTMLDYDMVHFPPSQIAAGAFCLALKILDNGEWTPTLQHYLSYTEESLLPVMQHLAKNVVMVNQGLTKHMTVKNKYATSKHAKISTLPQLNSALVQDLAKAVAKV

SMILES	IC50 (CDK1/Cyclin B1, GST-tag) [nM]	IC50 (CDK2/Cyclin E) [nM]
Fc1ncccc1Cn1ncc2ncc(Nc3cc(OC(F)F)[nH]n3)nc21 [Example 7, N-(5-(difluoromethoxy)-1H-pyrazol-3-yl)-1-((2-fluoropyridin-3-yl)methyl)-1H-pyrazolo[3,4-b]pyrazin-6-amine]	100 to 500	≤ 10
COc1cc(Nc2cnc3cnn([C@@H](C)c4cc(F)ccn4)c3n2)n[nH]1 (single isomer, unassigned) [Example 186, (S)-1-(1-(4-fluoropyridin-2-yl)ethyl)-N-(5-methoxy-1H-pyrazol-3-yl)-1H-pyrazolo[3,4-b]pyrazin-6-amine or (R)-1-(1-(4-fluoropyridin-2-yl)ethyl)-N-(5-methoxy-1H-pyrazol-3-yl)-1H-pyrazolo[3,4-b]pyrazin-6-amine]	≥ 500	10 to 20
C[C@@H]([C@H]1CCCOC1)n1ncc2ncc(Nc3cc(OC(F)F)[nH]n3)nc21 (single isomer, unassigned) [Example 215]	< 100	≤ 10
CC(C)(C1CCOCC1)n1ncc2ncc(Nc3cc(OC(F)F)[nH]n3)nc21 [Example 127, N-(5-(difluoromethoxy)-1H-pyrazol-3-yl)-1-(2-(tetrahydro-2H-pyran-4-yl)propan-2-yl)-1H-pyrazolo[3,4-b]pyrazin-6-amine]	≥ 500	20 to 30
CC1(C)C[C@H](Cn2ncc3ncc(Nc4cc(OC(F)F)[nH]n4)nc32)C(=O)N1 (single isomer, unassigned) [Example 185, (S)-3-((6-((5-(difluoromethoxy)-1H-pyrazol-3-yl)amino)-1H-pyrazolo[3,4-b]pyrazin-1-yl)methyl)-5,5-dimethylpyrrolidin-2-one or (R)-3-((6-((5-(difluoromethoxy)-1H-pyrazol-3-yl)amino)-1H-pyrazolo[3,4-b]pyrazin-1-yl)methyl)-5,5-dimethylpyrrolidin-2-one]	≥ 500	30 to 100
COc1cc(Nc2cnc3cnn([C@@H](C)C4CCOCC4)c3n2)n[nH]1 [Example 22, (S)—N-(5-methoxy-1H-pyrazol-3-yl)-1-(1-(tetrahydro-2H-pyran-4-yl)ethyl)-1H-pyrazolo[3,4-b]pyrazin-6-amine]	100 to 500	≤ 10
CC[C@@H](c1ccccn1)n1ncc2ncc(Nc3cc(OC(F)F)[nH]n3)nc21 [Example 97, (S)-N-(5-(difluoromethoxy)-1H-pyrazol-3-yl)-1-(1-(pyridin-2-yl)propyl)-1H-pyrazolo[3,4-b]pyrazin-6-amine]	≥ 500	≤ 10
C[C@@H]1C[C@H](Cn2ncc3ncc(Nc4cc(OC(F)F)[nH]n4)nc32)C[C@H](C)O1 [Example 65, N-(5-(difluoromethoxy)-1H-pyrazol-3-yl)-1-(((2R,4r,6S)-2,6-dimethyltetrahydro-2Hpyran-4-yl)methyl)-1Hpyrazolo[3,4-b]pyrazin-6-amine]	< 100	≤ 10
FC(F)Oc1cc(Nc2cnc3cnn([C@@H](c4cccnc4)C4CC4)c3n2)n[nH]1 (single isomer, unassigned) [Example 148, (S)-1-(cyclopropyl(pyridin-3-yl)methyl)-N-(5-(difluoromethoxy)-1H-pyrazol-3-yl)-1H-pyrazolo[3,4-b]pyrazin-6-amine or (R)-1-(cyclopropyl(pyridin-3-yl)methyl)-N-(5-(difluoromethoxy)-1H-pyrazol-3-yl)-1H-pyrazolo[3,4-b]pyrazin-6-amine]	≥ 500	≤ 10
CC1(C)C[C@H](Cn2ncc3ncc(Nc4cc(OC(F)F)[nH]n4)nc32)C(=O)N1 (single isomer, unassigned) [Example 184, (R)-3-((6-((5-(difluoromethoxy)-1H-pyrazol-3-yl)amino)-1H-pyrazolo[3,4-b]pyrazin-1-yl)methyl)-5,5-dimethylpyrrolidin-2-one or (S)-3-((6-((5-(difluoromethoxy)-1H-pyrazol-3-yl)amino)-1H-pyrazolo[3,4-b]pyrazin-1-yl)methyl)-5,5-dimethylpyrrolidin-2-one]	≥ 500	30 to 100
COc1cc(Nc2cnc3cnn([C@@H](CF)C4CCOCC4)c3n2)n[nH]1 (single isomer, unassigned) [Example 195, (S)-1-(2-fluoro-1-(tetrahydro-2H-pyran-4-yl)ethyl)-N-(5-methoxy-1H-pyrazol-3-yl)-1H-pyrazolo[3,4-b]pyrazin-6-amine or (R)-1-(2-fluoro-1-(tetrahydro-2H-pyran-4-yl)ethyl)-N-(5-methoxy-1H-pyrazol-3-yl)-1H-pyrazolo[3,4-b]pyrazin-6-amine]	≥ 500	> 100
C[C@@H]([C@@H]1CCOC1)n1ncc2ncc(Nc3cc(OC(F)F)[nH]n3)nc21 (single isomer, unassigned) [Example 9]	≥ 500	≤ 10
FC(F)Oc1cc(Nc2cnc3cnn([C@@H]4CCCOC4)c3n2)n[nH]1 [Example 78, (R)-N-(5-(difluoromethoxy)-1H-pyrazol-3-yl)-1-(tetrahydro-2H-pyran-3-yl)-1H-pyrazolo[3,4-b]pyrazin-6-amine]	≥ 500	30 to 100
N#C[C@H]1C[C@@H]1Cn1ncc2ncc(Nc3cc(OC(F)F)[nH]n3)nc21 (single isomer, unassigned) [Example 27, (1S,2S)-2-((6-((5-(difluoromethoxy)-1H-pyrazol-3-yl)amino)-1H-pyrazolo[3,4-b]pyrazin-1-yl)methyl)cyclopropane-1-carbonitrile or (1R,2R)-2-((6-((5-(difluoromethoxy)-1H-pyrazol-3-yl)amino)-1H-pyrazolo[3,4-b]pyrazin-1-yl)methyl)cyclopropane-1-carbonitrile]	100 to 500	≤ 10
O=C1C[C@@H](Cn2ncc3ncc(Nc4cc(OC(F)F)[nH]n4)nc32)CN1 (single isomer, unassigned) [Example 21, (R)-4-((6-((5-(difluoromethoxy)-1H-pyrazol-3-yl)amino)-1H-pyrazolo[3,4-b]pyrazin-1-yl)methyl)pyrrolidin-2-one or (S)-4-((6-((5-(difluoromethoxy)-1H-pyrazol-3-yl)amino)-1H-pyrazolo[3,4-b]pyrazin-1-yl)methyl)pyrrolidin-2-one]	≥ 500	20 to 30
FC[C@@H](C1CCOCC1)n1ncc2ncc(Nc3cc(OC(F)F)[nH]n3)nc21 (single isomer, unassigned) [Example 31]	< 100	≤ 10
O[C@H]1CC[C@H](n2ncc3ncc(Nc4cc(OC(F)F)[nH]n4)nc32)CC1 [Example 3, (1r,4r)-4-(6-((5-(difluoromethoxy)-1H-pyrazol-3-yl)amino)-1H-pyrazolo[3,4-b]pyrazin-1-yl)cyclohexan-1-ol]	100 to 500	≤ 10

Next, values leading:

IC50 (CDK1/Cyclin B1, GST-tag) [nM]	IC50 (CDK2/Cyclin E) [nM]	SMILES
≥ 500	≤ 10	FC(F)Oc1cc(Nc2cnc3cnn(Cc4cncs4)c3n2)n[nH]1 [Example 53, N-(5-(difluoromethoxy)-1H-pyrazol-3-yl)-1-(thiazol-5-ylmethyl)-1H-pyrazolo[3,4-b]pyrazin-6-amine]
≥ 500	≤ 10	FC(F)Oc1cc(Nc2cnc3cnn(C[C@H]4[C@@H]5COC[C@@H]54)c3n2)n[nH]1 [Example 81, 1-(((1R,5S,6s)-3-oxabicyclo[3.1.0]hexan-6-yl)methyl)-N-(5-(difluoromethoxy)-1H-pyrazol-3-yl)-1H-pyrazolo[3,4-b]pyrazin-6-amine]
≥ 500	10 to 20	FC(F)Oc1cc(Nc2cnc3cnn(Cc4ccno4)c3n2)n[nH]1 [Example 134, N-(5-(difluoromethoxy)-1H-pyrazol-3-yl)-1-(isoxazol-5-ylmethyl)-1H-pyrazolo[3,4-b]pyrazin-6-amine]
≥ 500	≤ 10	CC[C@H]([C@H](C)O)n1ncc2ncc(Nc3cc(OC(F)F)[nH]n3)nc21 (single isomer, unassigned) [Example 5, (2S,3R)-3-(6-((5-(difluoromethoxy)-1H-pyrazol-3-yl)amino)-1H-pyrazolo[3,4-b]pyrazin-1-yl)pentan-2-ol or (2S,3S)-3-(6-((5-(difluoromethoxy)-1H-pyrazol-3-yl)amino)-1H-pyrazolo[3,4-b]pyrazin-1-yl)pentan-2-ol]
≥ 500	30 to 100	C[C@@H](CO)Cn1ncc2ncc(Nc3cc(OC(F)F)[nH]n3)nc21 [Example 198, (R)-3-(6-((5-(difluoromethoxy)-1H-pyrazol-3-yl)amino)-1H-pyrazolo[3,4-b]pyrazin-1-yl)-2-methylpropan-1-ol]
≥ 500	≤ 10	C[C@H](C1CC1)n1ncc2ncc(Nc3cc(OC(F)F)[nH]n3)nc21 [Example 55, (R)-1-(1-cyclopropylethyl)-N-(5-(difluoromethoxy)-1H-pyrazol-3-yl)-1H-pyrazolo[3,4-b]pyrazin-6-amine]
≥ 500	20 to 30	OCC1CC(n2ncc3ncc(Nc4cc(OC(F)F)[nH]n4)nc32)C1 (centres unmarked) [Example 219, (3-(6-((5-(difluoromethoxy)-1H-pyrazol-3-yl)amino)-1H-pyrazolo [3,4-b]pyrazin-1-yl)cyclobutyl)methanol]
≥ 500	≤ 10	Fc1ccc(Cn2ncc3ncc(Nc4cc(OC(F)F)[nH]n4)nc32)cn1 [Example 41, N-(5-(difluoromethoxy)-1H-pyrazol-3-yl)-1-((6-fluoropyridin-3-yl)methyl)-1H-pyrazolo[3,4-b]pyrazin-6-amine]
